# Data published in patent publication US8252973B2, “Metabolic engineering of lipid metabolism by improving fatty acid binding and transport” (The Salk Institute for Biological Studies, priority 2006, dated 2012).
# Legend:
# Assay type in all cases: binding
# At287 (At1g53520) = target: T1, At287 (At1g53520) (Arabidopsis thaliana, UniProt Q9C8L2); assay: LC-MS analysis of fatty acids bound to purified At287 protein; conditions: protein over-expressed in and purified from E. coli, ethanol extract, negative-ion ESI
# T1 construct: At279 and At287 proteins were purified to homogeneity as described above; His tag (pHIS8 vector) (N, cleaved yes); made in house; host or cells: E. coli BL21 (DE3)
# T1 sequence (Q9C8L2 73-287): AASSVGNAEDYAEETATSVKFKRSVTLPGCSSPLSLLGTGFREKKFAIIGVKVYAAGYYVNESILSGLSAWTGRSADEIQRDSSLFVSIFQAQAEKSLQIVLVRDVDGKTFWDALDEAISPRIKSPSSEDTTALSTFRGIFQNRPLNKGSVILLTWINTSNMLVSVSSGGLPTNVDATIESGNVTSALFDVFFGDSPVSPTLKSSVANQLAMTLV
# Protocol: (§1) Cloning, expression and purification of At3g63170 (At279) and At1g53520 (At287): Arabidopsis thaliana At3g63170 (At279) and At1g53520 (At287) genes were subcloned into the pHIS8 Escherichia coli expression vector derived from pET28a (+). For crystallization purpose, constructs of At279 and At287 lacking the transit peptide sequence found at the N-terminal region of the protein (˜50 amino acids) were also created. Transformed E. coli. BL21 (DE3) cells were incubated with shaking at 37° C. in Terrific broth containing 50 μg/ml kanamycin until A([…])=1.0. Protein expression was induced with 0.5 mM isopropyl 1-thio-β-galactopyranoside, and the cultures were incubated with shaking at 22° C. for an additional 6 h. Cells were harvested by centrifugation at 9,000×g and cell pellets re-suspended in lysis buffer (500 mM NaCl, 50 mM Tris-HCl (pH 8.0), 20 mM imidazole, 10% (v/v) glycerol 1% (v/v) Tween 20, 10 mM […]) supplemented with 1 mg/ml lysozyme. Following sonication and centrifugation of the lysed cell debris at 100,000×g, the supernatant was passed over a Ni2+-NTA column (Qiagen, Valencia, Calif.) equilibrated in lysis buffer, washed with 10 bed volumes of wash buffer (500 mM NaCl, 50 mM Tris-HCl (pH 8.0), 20 mM imidazole, 10 mM β-mercaptoethanol), and the His-tagged protein eluted with 10 bed volumes of elution buffer (500 mM NaCl, 50 mM Tris-HCl (pH 8.0), 250 mM imidazole, 10 mM β-mercaptoethanol). The N-terminal His tag was cleaved by thrombin digestion during a 24-h dialysis against digestion buffer (500 mM NaCl, 50 mM Tris (pH 8.0), 10 mM β-mercaptoethanol) at 4° C. Cleaved protein was isolated by running the dialyzed sample over another Ni2+-NTA column equilibrated in digestion buffer to remove the His tag and uncleaved protein, followed by a benzamidine-Sepharose column to remove thrombin. A Superdex S75 gel filtration column (Amersham Biosciences) equilibrated in gel filtration buffer (500 mM NaCl, 25 mM HEPES (pH 7.5), 2 mM dithiothreitol (DTT) was utilized to isolate homogeneous At279 and A287. Peak fractions were collected and dialyzed against crystallization storage buffer (100 mM NaCl, 25 mM HEPES (pH 7.5), 2 mM DTT). The resulting samples were subjected to SDS-PAGE and judged to be >95% pure based upon Coomassie staining. At279 and At287 were subsequently concentrated to 10-15 mg/ml and stored at −80° C.
# (§2) At279 and At287 proteins were purified to homogeneity as described above. Ice-cold HPLC grade ethanol (600 μl) was added to the proteins (150 μl protein sample at 10 mg/ml previously dialyzed against 20 mM ammonium bicarbonate). The samples were vortexed and incubated at −20° C. for 3 days. For LC-MS analysis, the samples were centrifuged, and the supernatant containing the FAs was removed and placed in a new glass vial. The solvent was evaporated at 25° C., and the remaining residue resuspended in 200 μl propanol. The extracts were analyzed by liquid chromatography (LC) using an Agilent 1100 HPLC employing a Gemini reversed-phase C18 column (4.6×150 mm, 5 μ) running at a flow rate of 1 ml/min, and coupled to an electrospray ionization (ESI) XCT ion trap mass spectrometer (Agilent) operated in the negative-ion mode employing a continual introduction of a 20 mM ammonium acetate solution flowing at 100 μl/min. A linear gradient of acetonitrile (30-100% v/v) in 25 mM ammonium bicarbonate, pH 8, was used. The negative ion-ESI mass spectra of FA standards were as follows: Laurie acid (C12:0) (m/z)=198.7 ([M-H]-), Myristic acid (C14:0) (m/z)=226.9 ([M-H]-), Palmitic acid (C16:0)/m/z)=254.9 ([M-H]-) and Stearic acid (C18:0) (m/z)=282.9 ([M-H]-).
# At279 (At3g63170) [1] = target: T2, At279 (At3g63170) (Arabidopsis thaliana, UniProt Q9M1X2); assay: LC-MS analysis of fatty acids bound to purified At279 protein; conditions: protein over-expressed in and purified from E. coli, ethanol extract, negative-ion ESI
# T2 construct: At279 and At287 proteins were purified to homogeneity as described above; His tag (pHIS8 vector) (N, cleaved yes); made in house; host or cells: E. coli BL21 (DE3)
# T2 sequence (Q9M1X2 1-279): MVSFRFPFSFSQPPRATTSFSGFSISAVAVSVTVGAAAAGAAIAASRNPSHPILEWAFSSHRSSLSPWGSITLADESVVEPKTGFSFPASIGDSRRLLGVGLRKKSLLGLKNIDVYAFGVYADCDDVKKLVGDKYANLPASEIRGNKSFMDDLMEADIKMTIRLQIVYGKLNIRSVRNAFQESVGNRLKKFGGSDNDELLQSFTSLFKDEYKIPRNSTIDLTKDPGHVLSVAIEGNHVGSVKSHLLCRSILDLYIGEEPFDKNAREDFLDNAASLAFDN
# Protocol: as §1, §2
# At279 (At3g63170) [2] = target: T3, At279 (At3g63170) (Arabidopsis thaliana, UniProt Q9M1X2); assay: X-ray crystal structure of At279 with bound small molecule; conditions: ligand likely derived from E. coli, carboxylic acid sequestered by Arg 103 and Tyr 116
# T3 construct: Crystals of the heterologously expressed At279 C-terminal construct (residues 77 to 279) were obtained by vapor diffusion; His tag (pHIS8 vector) (N, cleaved yes); made in house; host or cells: E. coli BL21 (DE3)
# T3 sequence (Q9M1X2 77-279): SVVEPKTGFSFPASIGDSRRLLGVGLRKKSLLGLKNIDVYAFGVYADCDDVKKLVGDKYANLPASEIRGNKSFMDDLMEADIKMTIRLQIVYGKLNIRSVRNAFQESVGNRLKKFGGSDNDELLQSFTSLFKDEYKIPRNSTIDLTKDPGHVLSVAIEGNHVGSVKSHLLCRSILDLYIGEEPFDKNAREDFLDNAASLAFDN
# Protocol: Crystals of the heterologously expressed At279 C-terminal construct (residues 77 to 279) were obtained by vapor diffusion in 2 μl hanging drops incubated at 4° C. and consisting of a 1:1 mixture of protein and crystallization buffer. The crystallization buffer contained 19% (w/v) PEG 3350, 0.3 M KCl, 2 mM DTT and 100 mM TAPS buffer at pH 8.5. Prior to freezing in liquid nitrogen, native crystals were passed through a cryogenic buffer identical to the crystallization buffer except for the use of 21% (w/v) PEG 3350 and the inclusion of 20% (v/v) ethylene glycol. For heavy atom derivatization, native At279 crystals were soaked overnight in crystallization buffer differing from the crystallization solution due to an increased PEG 3350 concentration (21% (w/v)) and the inclusion of 1 mM K2PtCl4 prior to cryogenic freezing as before. A multi-wavelength anomalous dispersion (MAD) data set was collected at the Pt edge on a K2PtCl4 derivative crystal at the Stanford Synchrotron Radiation Laboratory (SSRL) on beam line BL1-5. Data were processed with HKL2000 and reduced to a unique set of indexed intensities to a resolution of 2.6 Å. A single-wavelength native data set was collected at SSRL and processed with HXL2000 to a resolution of 1.9 Å. At279 crystals belong to the P2(1)2(1)2(1) space group, with average unit cell dimensions of a=56.44 Å, b=56.96 Å, c=140.37 Å, α=β=γ=90°. […]
Compound,fatty acid bound to purified At287 (presence in protein extract by LC-MS) (At287 (At1g53520)),fatty acid bound to purified At287 (presence in protein extract by LC-MS) (At287 (At1g53520); listed as C12:0),fatty acid bound to purified At279 (presence in protein extract by LC-MS) (At279 (At3g63170) [1]),fatty acid bound to purified At279 (presence in protein extract by LC-MS) (At279 (At3g63170) [1]; listed as C12:0),small molecule bound in At279 crystal structure (At279 (At3g63170) [2]),small molecule bound in At279 crystal structure (At279 (At3g63170) [2]; listed as lauric acid),fatty acid bound to purified At287 (presence in protein extract by LC-MS) (At287 (At1g53520); listed as C14:0),fatty acid bound to purified At279 (presence in protein extract by LC-MS) (At279 (At3g63170) [1]; listed as C14:0),fatty acid bound to purified At287 (presence in protein extract by LC-MS) (At287 (At1g53520); listed as C16:0),fatty acid bound to purified At279 (presence in protein extract by LC-MS) (At279 (At3g63170) [1]; listed as C16:0),fatty acid bound to purified At287 (presence in protein extract by LC-MS) (At287 (At1g53520); listed as C18:0),fatty acid bound to purified At279 (presence in protein extract by LC-MS) (At279 (At3g63170) [1]; listed as C18:0)
"CCCCCCCCCCCC(=O)O [Laurie acid, lauric acid]",bind,clearly showed the presence,bind,clearly showed the presence,sequestered in a well-organized binding pocket,bound in a cavity partially overlapping with the originally identified CHI active site,–,–,–,–,–,–
CCCCCCCCCCCCCC(=O)O [Myristic acid],bind,–,bind,–,–,–,clearly showed the presence,clearly showed the presence,–,–,–,–
CCCCCCCCCCCCCCCC(=O)O [Palmitic acid],bind,–,bind,–,–,–,–,–,clearly showed the presence,clearly showed the presence,–,–
CCCCCCCCCCCCCCCCCC(=O)O [Stearic acid],bind,–,bind,–,–,–,–,–,–,–,clearly showed the presence,clearly showed the presence
